Experimental data published in article PMC7866087, “Evaluation of Computationally Designed Peptides against TWEAK, a Cytokine of the Tumour Necrosis Factor Ligand Family” (International Journal of Molecular Sciences, 2021).
Where “and” joins values, the source holds several entries; their conditions need not be identical. Identical values can stand only once.

System: TWEAK-Fn14 signalling pathway, BRV5 cells
Assay: Cell-based screening of individual peptides, gene expression microarray in TWEAK-stimulated BRV5 cells
Parameters: species or system human
Details: 6 h; for regulation of probe genes by individual peptides: BRV5 + TWEAK 25 ng/mL, peptides 450 µM; for BIRC2 mRNA expression (normalized to NARS2) / HSP90B1 mRNA expression (normalized to NARS2) / IL6 mRNA expression (normalized to NARS2) / JUN mRNA expression (normalized to NARS2) / MAP4K4 mRNA expression (normalized to NARS2) / MAPK14 mRNA expression (normalized to NARS2) / NFKB2 mRNA expression (normalized to NARS2) / TNFRSF12A mRNA expression (normalized to NARS2) / TRAF2 mRNA expression (normalized to NARS2) / BIRC2 expression Z-Score / HSP90B1 expression Z-Score / IL6 expression Z-Score / JUN expression Z-Score / MAP4K4 expression Z-Score / MAPK14 expression Z-Score / NFKB2 expression Z-Score / TNFRSF12A expression Z-Score / TRAF2 expression Z-Score: individual peptides, BRV5 + TWEAK; for BIRC2 mRNA expression (normalized to NARS2) / HSP90B1 mRNA expression (normalized to NARS2) / IL6 mRNA expression (normalized to NARS2) / JUN mRNA expression (normalized to NARS2) / MAP4K4 mRNA expression (normalized to NARS2) / MAPK14 mRNA expression (normalized to NARS2) / NFKB2 mRNA expression (normalized to NARS2) / TNFRSF12A mRNA expression (normalized to NARS2) / TRAF2 mRNA expression (normalized to NARS2): 450 µM; for BIRC2 expression Z-Score / HSP90B1 expression Z-Score / IL6 expression Z-Score / JUN expression Z-Score / MAP4K4 expression Z-Score / MAPK14 expression Z-Score / NFKB2 expression Z-Score / TNFRSF12A expression Z-Score / TRAF2 expression Z-Score: normalized to NARS2
Text: Pool 1 and 5 were therefore deconstructed to assess the effect of individual peptides and their activity on same cell-based screening. Pools 1 and 5 were composed of peptides 45, 46, 42, 3, 49, 11, and 13; and of peptides 1, 9, 30, 35, 41, 43, 7, and 14, respectively. As before, and shown in Figure 4B, the level of expression of probe genes on TWEAK-stimulated (T) BRV5 cells is overall higher than on non-stimulated (NT) one. […] The structural model of peptides 43, 30, 35 and 49 bound to TWEAK can be seen in Figure 5 and Supplementary Materials Figures S4–S6, respectively.
Three different cell lines were used in this study: BRV5, MDA-MB 435 (435-P), and HT29. The BRV5 is a highly metastatic brain cell line, obtained in one of our laboratories by primary culture from a brain of a nude mouse inoculated with human 435-Br1 brain metastatic cells, as previously described and used as a model to test the peptides in cell cultures. […] The triple negative 435-P cell line is a useful human breast cancer model that expresses both epithelial and melanocytic markers, and was included as the parental cell from which 435-Br1 metastatic variant was initially originated (both cell lines kindly provided by Dr Fabra at IDIBELL Institute, Hospitalet de Llobregat, Spain). Finally, HT29 human colon carcinoma cells obtained from the European Type Culture Collection (ECACC 91072201) were used as a positive control of TWEAK dependent Fn14 over-expressing cells to evaluate TWEAK-Fn14 axis of brain metastatic variants.
Appropriate cell culture conditions were established as the controls needed in the expression of genes with and without peptides and with and without TWEAK activation, both as pools and individually (see Supplementary Materials Figure S2). The protocol started with the seeding of 125,000 cells/well in 500 µL of culture media supplemented with 10% fetal bovine serum (CM+FBS10%) in 24-well dishes for 24 h before removing FBS (CM-FBS). After overnight starvation in CM-FBS culture, different peptide treatment conditions (at final concentration of 450 µM) were established in the presence or absence of TWEAK (25 ng/mL final concentration) (Peprotech EC, Ltd., London, UK). Some cells were treated with peptides at a single, unique, initial dose (time 0) while other were treated with repeated doses to account for the effect cell-culture degradation. These include a repeated treatment every hour (i.e., […]), every two hours (time 0, 2, and 4) and every three hours (time 0 and 3)—see Supplementary Materials Figure S2 for diagrammatic depiction. At time 6 (after six hours) cells were lysed and RNA extracted for transcriptomic analyses (see next). Cell were culture for six hours as this was the time needed to achieve the highest upregulation of the TWEAK-Fn14 axis upon TWEAK treatment as shown in previous time-course RT-PCR experiments (see Figure 2).
RNA from cells was extracted 6 h after treatments by direct lysis on the well. The RNeasy Micro kit (Qiagen, Hilden, Germany) was used to isolate total RNA from cell lysate following manufacturer’s protocols including an additional step of digestion with DNase I (Qiagen, Hilden, Germany). Total RNA concentration was measured in a NanoDrop 1000 spectrophotometer (Thermo Scientific, Waltham, MA, USA). The RNA extracted from treated and untreated cells (see above) was used as a proxy for gene expression.
The quantitative RT-PCR was performed using Fluidigm Dynamic Array FlexSix array with the specific primers for gene expression (Delta Genes Assays, Wet lab tested on Dynamic Array IFC) designed to RefSeq for detection by pPCR EvaGreen assay (Dynamic Array FlexSix, Fluidigm Corporation). Each Flex Six IFC has a total of six independent partitions. Each partition has a 12 × 12 format (12 assay inlets and 12 sample inlets) and will be run independently as a separate experimental run. […]

Substance | regulation of probe genes by individual peptides | BIRC2 mRNA expression (normalized to NARS2) (mean of replicate columns) | HSP90B1 mRNA expression (normalized to NARS2) (mean of replicate columns) | IL6 mRNA expression (normalized to NARS2) (mean of replicate columns) | JUN mRNA expression (normalized to NARS2) (mean of replicate columns) | MAP4K4 mRNA expression (normalized to NARS2) (mean of replicate columns) | MAPK14 mRNA expression (normalized to NARS2) (mean of replicate columns) | NFKB2 mRNA expression (normalized to NARS2) (mean of replicate columns) | TNFRSF12A mRNA expression (normalized to NARS2) (mean of replicate columns) | TRAF2 mRNA expression (normalized to NARS2) (mean of replicate columns) | BIRC2 mRNA expression (normalized to NARS2) (replicate column 1) | HSP90B1 mRNA expression (normalized to NARS2) (replicate column 1) | IL6 mRNA expression (normalized to NARS2) (replicate column 1) | JUN mRNA expression (normalized to NARS2) (replicate column 1) | MAP4K4 mRNA expression (normalized to NARS2) (replicate column 1) | MAPK14 mRNA expression (normalized to NARS2) (replicate column 1) | NFKB2 mRNA expression (normalized to NARS2) (replicate column 1) | TNFRSF12A mRNA expression (normalized to NARS2) (replicate column 1) | TRAF2 mRNA expression (normalized to NARS2) (replicate column 1) | BIRC2 mRNA expression (normalized to NARS2) (replicate column 2) | also measured
1: GNGTDDNSGTSY [Peptide 1] | lack of effect against the probe genes | 0.5966 | 1.937 | 0.002365 | 0.07082 | 0.1707 | 0.1634 | 0.03922 | 0.01975 | 0.011 | 0.538 | 1.874 | 0.002307 | 0.06535 | 0.1695 | 0.1671 | 0.04144 | 0.01871 | 0.009637 | 0.6552 | HSP90B1 mRNA expression (normalized to NARS2) (replicate column 2): 2.001; IL6 mRNA expression (normalized to NARS2) (replicate column 2): 0.002424; JUN mRNA expression (normalized to NARS2) (replicate column 2): 0.07629; MAP4K4 mRNA expression (normalized to NARS2) (replicate column 2): 0.1719; MAPK14 mRNA expression (normalized to NARS2) (replicate column 2): 0.1597; NFKB2 mRNA expression (normalized to NARS2) (replicate column 2): 0.037; TNFRSF12A mRNA expression (normalized to NARS2) (replicate column 2): 0.0208; TRAF2 mRNA expression (normalized to NARS2) (replicate column 2): 0.01237; BIRC2 expression Z-Score (listed as P1): 0.2639; HSP90B1 expression Z-Score (listed as P1): -0.5389; IL6 expression Z-Score (listed as P1): 0.4124; JUN expression Z-Score (listed as P1): -0.3055; MAP4K4 expression Z-Score (listed as P1): -0.3569; MAPK14 expression Z-Score (listed as P1): -0.6461; NFKB2 expression Z-Score (listed as P1): -0.1191; TNFRSF12A expression Z-Score (listed as P1): -0.0875 and -0.08748; TRAF2 expression Z-Score (listed as P1): -0.4104
42: YNGHVKDD [Peptide 42] | lack of effect against the probe genes | 0.5389 | 2.753 | 0.00216 | 0.08082 | 0.2296 | 0.2228 | 0.05504 | 0.02325 | 0.01684 | 0.5109 | 2.683 | 0.001723 | 0.07685 | 0.2119 | 0.2124 | 0.04902 | 0.02357 | 0.01769 | 0.5668 | HSP90B1 mRNA expression (normalized to NARS2) (replicate column 2): 2.8231; IL6 mRNA expression (normalized to NARS2) (replicate column 2): 0.002596; JUN mRNA expression (normalized to NARS2) (replicate column 2): 0.08479; MAP4K4 mRNA expression (normalized to NARS2) (replicate column 2): 0.2473; MAPK14 mRNA expression (normalized to NARS2) (replicate column 2): 0.2332; NFKB2 mRNA expression (normalized to NARS2) (replicate column 2): 0.06106; TNFRSF12A mRNA expression (normalized to NARS2) (replicate column 2): 0.02293; TRAF2 mRNA expression (normalized to NARS2) (replicate column 2): 0.01599; BIRC2 expression Z-Score (listed as P42): -0.1362; HSP90B1 expression Z-Score (listed as P42): 0.9131; IL6 expression Z-Score (listed as P42): 0.2346; JUN expression Z-Score (listed as P42): -0.1905; MAP4K4 expression Z-Score (listed as P42): 1.1128 and 1.113; MAPK14 expression Z-Score (listed as P42): 0.3913; NFKB2 expression Z-Score (listed as P42): 1.3869 and 1.387; TNFRSF12A expression Z-Score (listed as P42): 0.3098; TRAF2 expression Z-Score (listed as P42): -0.1276
SWYDHMAGDSSY [Peptide 35] | lowest overall expression across all genes | 0.4507 | 1.621 | 0.002118 | 0.05317 | 0.1168 | 0.1368 | 0.02465 | 0.01131 | 0.008162 | 0.4318 | 1.578 | 0.00212 | 0.0528 | 0.1079 | 0.1402 | 0.02663 | 0.01132 | 0.007774 | 0.4696 | HSP90B1 mRNA expression (normalized to NARS2) (replicate column 2): 1.664; IL6 mRNA expression (normalized to NARS2) (replicate column 2): 0.002116; JUN mRNA expression (normalized to NARS2) (replicate column 2): 0.05355; MAP4K4 mRNA expression (normalized to NARS2) (replicate column 2): 0.1258; MAPK14 mRNA expression (normalized to NARS2) (replicate column 2): 0.1335; NFKB2 mRNA expression (normalized to NARS2) (replicate column 2): 0.02267; TNFRSF12A mRNA expression (normalized to NARS2) (replicate column 2): 0.01129; TRAF2 mRNA expression (normalized to NARS2) (replicate column 2): 0.008551; BIRC2 expression Z-Score (listed as P35): -0.7468; HSP90B1 expression Z-Score (listed as P35): -1.1014 and -1.101; IL6 expression Z-Score (listed as P35): 0.1984; JUN expression Z-Score (listed as P35): -0.5085; MAP4K4 expression Z-Score (listed as P35): -1.7018 and -1.702; MAPK14 expression Z-Score (listed as P35): -1.1107 and -1.111; NFKB2 expression Z-Score (listed as P35): -1.5063 and -1.506; TNFRSF12A expression Z-Score (listed as P35): -1.0476 and -1.048; TRAF2 expression Z-Score (listed as P35): -0.5479
